Reference: patent US11446287B2, “Compounds and methods for EP300 or CBP modulation and indications therefor” (Opna Immuno-Oncology SA, priority 2019, dated 2022)

These compounds were tested against T1, Recombinant human CBP containing the bromodomain (CBP-BD (1043-1159)) (Homo sapiens, UniProt Q92793) (assay: CBP Alphascreen binding assay). Conditions: read-out: CREBBP (CBP) IC50.
T1 construct: Recombinant human CBP bromodomain (CBP-BD (1043-1159)); made in house; host or cells: E. coli BL21-CodonPlus (DE3), modified pET vector
T1 sequence (Q92793 1081-1197): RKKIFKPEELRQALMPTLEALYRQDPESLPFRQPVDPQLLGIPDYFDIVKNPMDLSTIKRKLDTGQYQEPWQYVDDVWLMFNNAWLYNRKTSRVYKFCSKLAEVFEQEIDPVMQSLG
Procedure, shortened: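 Buffer: 50 mM HEPES pH 7.5, 50 mM NaCl, 0.01% BSA, 0.01% Triton X-100, 2 mM DTT. The signal was normalised to plate controls and fitted with a four-parameter curve to give IC50.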

Compound | IC50 [nM]
Cc1noc(C)c1-c1cnc2c(c1)c(-c1ccc(C(=O)O)cc1OC(F)(F)F)cn2-c1cnc(N)nc1 [P-0320, 4-(1-(2-aminopyrimidin-5-yl)-5-(3,5-dimethylisoxazol-4-yl)-1H-pyrrolo[2,3-b]pyridin-3-yl)-3-(trifluoromethoxy)benzoic acid] | 0.1 to 1000
Cc1noc(C)c1-c1cnc2c(c1)c(-c1ccc(C(=O)O)cc1OC(F)(F)F)cn2-c1cnc(N(C)C)nc1 [P-0321] | 0.1 to 1000
Cc1noc(C)c1-c1cnc2c(c1)c(-c1ccc(C(=O)O)cc1OC(F)(F)F)cn2-c1ccc(C(=O)O)cc1 [P-0322, 4-(1-(4-carboxyphenyl)-5-(3,5-dimethylisoxazol-4-yl)-1H-pyrrolo[2,3-b]pyridin-3-yl)-3-(trifluoromethoxy)benzoic acid] | 0.1 to 1000
Cc1noc(C)c1-c1cnc2c(c1)c(-c1ccc(C(=O)O)cc1OC(F)(F)F)cn2-c1ccc(C(N)=O)cc1 [P-0323, 4-(1-(4-carbamoylphenyl)-5-(3,5-dimethylisoxazol-4-yl)-1H-pyrrolo[2,3-b]pyridin-3-yl)-3-(trifluoromethoxy)benzoic acid] | 0.1 to 1000
COc1cc(C(=O)O)ncc1-c1cn(-c2ccncc2Cl)c2ncc(-c3c(C)noc3C)cc12 [P-0324, 5-(1-(3-chloropyridin-4-yl)-5-(3,5-dimethylisoxazol-4-yl)-1H-pyrrolo[2,3-b]pyridin-3-yl)-4-methoxypicolinic acid] | 0.1 to 1000
Cc1noc(C)c1-c1cnc2c(c1)c(-c1ccc(C(=O)O)cc1OCC(F)F)cn2[C@H]1CCOC1 [P-0325, (S)-3-(2,2-difluoroethoxy)-4-(5-(3,5-dimethylisoxazol-4-yl)-1-(tetrahydrofuran-3-yl)-1H-pyrrolo[2,3-b]pyridin-3-yl)benzoic acid] | 0.1 to 1000
CCn1cc(-n2cc(-c3ccc(C(=O)O)cc3OCC(F)F)c3cc(-c4c(C)noc4C)cnc32)c(C)n1 [P-0326, 3-(2,2-difluoroethoxy)-4-(5-(3,5-dimethylisoxazol-4-yl)-1-(1-ethyl-3-methyl-1H-pyrazol-4-yl)-1H-pyrrolo[2,3-b]pyridin-3-yl)benzoic acid] | 0.1 to 1000
Cc1noc(C)c1-c1cnc2c(c1)c(-c1c(F)cc(C(=O)O)cc1OCC(F)F)cn2-c1ccccc1 [P-0327, 3-(2,2-difluoroethoxy)-4-(5-(3,5-dimethylisoxazol-4-yl)-1-phenyl-1H-pyrrolo[2,3-b]pyridin-3-yl)-5-fluorobenzoic acid] | 0.1 to 1000
Cc1noc(C)c1-c1cnc2c(c1)c(-c1ccc(C(=O)O)cc1OCC(F)F)cn2-c1cnc(N2CCC2)nc1 [P-0328, 4-(1-(2-(azetidin-1-yl)pyrimidin-5-yl)-5-(3,5-dimethylisoxazol-4-yl)-1H-pyrrolo[2,3-b]pyridin-3-yl)-3-(2,2-difluoroethoxy)benzoic acid] | 0.1 to 1000
CCOc1cc(C(=O)O)nc(OCC)c1-c1cn(-c2ccc(F)cc2F)c2ncc(-c3c(C)noc3C)cc12 [P-0329, 5-(1-(2,4-difluorophenyl)-5-(3,5-dimethylisoxazol-4-yl)-1H-pyrrolo[2,3-b]pyridin-3-yl)-4,6-diethoxypicolinic acid] | 0.1 to 1000
CCOc1cc(C(=O)O)c(F)cc1-c1cn(-c2ccc(F)cc2F)c2ncc(-c3c(C)noc3C)cc12 [P-0330, 4-(1-(2,4-difluorophenyl)-5-(3,5-dimethylisoxazol-4-yl)-1H-pyrrolo[2,3-b]pyridin-3-yl)-5-ethoxy-2-fluorobenzoic acid] | 0.1 to 1000
Cc1noc(C)c1-c1cnc2c(c1)c(-c1c(Cl)cc(C(=O)O)cc1OCC(F)F)cn2-c1cnc(N2CCC2)nc1 [P-0331, 4-(1-(2-(azetidin-1-yl)pyrimidin-5-yl)-5-(3,5-dimethylisoxazol-4-yl)-1H-pyrrolo[2,3-b]pyridin-3-yl)-3-chloro-5-(2,2-difluoroethoxy)benzoic acid] | 0.1 to 1000
Cc1noc(C)c1-c1cnc2c(c1)c(-c1c(Cl)cc(C(=O)O)cc1OCC(F)F)cn2-c1ccccc1 [P-0332, 3-chloro-5-(2,2-difluoroethoxy)-4-(5-(3,5-dimethylisoxazol-4-yl)-1-phenyl-1H-pyrrolo[2,3-b]pyridin-3-yl)benzoic acid] | 0.1 to 1000
Cc1noc(C)c1-c1cnc2c(c1)c(-c1c(Cl)cc(C(=O)O)cc1OCC(F)F)cn2[C@H]1CCOC1 [P-0333, (S)-3-chloro-5-(2,2-difluoroethoxy)-4-(5-(3,5-dimethylisoxazol-4-yl)-1-(tetrahydrofuran-3-yl)-1H-pyrrolo[2,3-b]pyridin-3-yl)benzoic acid] | 0.1 to 1000
Cc1noc(C)c1-c1cnc2c(c1)c(-c1ccc(C(=O)O)cc1OC1CCC1)cn2-c1ncccc1C#N [P-0334, 4-(1-(3-cyanopyridin-2-yl)-5-(3,5-dimethylisoxazol-4-yl)-1H-pyrrolo[2,3-b]pyridin-3-yl)-3-cyclobutoxybenzoic acid] | 0.1 to 1000
Cc1noc(C)c1-c1cnc2c(c1)c(-c1ccc(C(=O)O)cc1OC(F)(F)F)cn2C1(CC#N)CCC1 [P-0335, 4-(1-(1-(cyanomethyl)cyclobutyl)-5-(3,5-dimethylisoxazol-4-yl)-1H-pyrrolo[2,3-b]pyridin-3-yl)-3-(trifluoromethoxy)benzoic acid] | 0.1 to 1000
Cc1noc(C)c1-c1cnc2c(c1)c(-c1ccc(C(=O)O)cc1OC(C)C)cn2-c1ncccc1C#N [P-0336, 4-(1-(3-cyanopyridin-2-yl)-5-(3,5-dimethylisoxazol-4-yl)-1H-pyrrolo[2,3-b]pyridin-3-yl)-3-isopropoxybenzoic acid] | 0.1 to 1000
Cc1noc(C)c1-c1cnc2c(c1)c(-c1ccc(C(=O)O)cc1OC1CC1)cn2-c1ncccc1C#N [P-0337, 4-(1-(3-cyanopyridin-2-yl)-5-(3,5-dimethylisoxazol-4-yl)-1H-pyrrolo[2,3-b]pyridin-3-yl)-3-cyclopropoxybenzoic acid] | 0.1 to 1000
Cc1noc(C)c1-c1cnc2c(c1)c(-c1ccc(C(=O)O)cc1OCC(F)F)cn2C(C1CC1)C1CC1 [P-0338, 4-(1-(dicyclopropylmethyl)-5-(3,5-dimethylisoxazol-4-yl)-1H-pyrrolo[2,3-b]pyridin-3-yl)-3-(2,2-difluoroethoxy)benzoic acid] | 0.1 to 1000
COc1cc(C(=O)O)ncc1-c1cn(C(C2CC2)C2CC2)c2ncc(-c3c(C)noc3C)cc12 [P-0339, 5-(1-(dicyclopropylmethyl)-5-(3,5-dimethylisoxazol-4-yl)-1H-pyrrolo[2,3-b]pyridin-3-yl)-4-methoxypicolinic acid] | 0.1 to 1000
Cc1noc(C)c1-c1cnc2c(c1)c(-c1c(Cl)cc(C(=O)O)cc1OCC(F)F)cn2C(C1CC1)C1CC1 [P-0340, 3-chloro-4-(1-(dicyclopropylmethyl)-5-(3,5-dimethylisoxazol-4-yl)-1H-pyrrolo[2,3-b]pyridin-3-yl)-5-(2,2-difluoroethoxy)benzoic acid] | 0.1 to 1000
Cc1noc(C)c1-c1cnc2c(c1)c(-c1ccc(C(=O)O)cc1OC1CCC1)cn2C1CCOCC1 [P-0341, 3-cyclobutoxy-4-(5-(3,5-dimethylisoxazol-4-yl)-1-(tetrahydro-2H-pyran-4-yl)-1H-pyrrolo[2,3-b]pyridin-3-yl)benzoic acid] | 0.1 to 1000
Cc1noc(C)c1-c1cnc2c(c1)c(-c1ccc(C(=O)O)cc1OC(C)C)c(C)n2C(C1CC1)C1CC1 [P-0342, 4-(1-(dicyclopropylmethyl)-5-(3,5-dimethylisoxazol-4-yl)-2-methyl-1H-pyrrolo[2,3-b]pyridin-3-yl)-3-isopropoxybenzoic acid] | 0.1 to 1000
